Data on two compounds can be found in publication PMC12238850, “Molecular determinants for recognition of serotonylated chromatin” (Nucleic Acids Research, 2025).

Holding throughout (type): binding
Experiment [1] addresses T1, TAF3 P881F (GST-tagged PHD) (Mus musculus, UniProt Q5HZG4, P881F).
T1 construct: Mus musculus Taf3-PHD domain (residues 857–924); made in house; host or cells: E. coli BL21(DE3)
T1 sequence (Q5HZG4 857-924 P881F): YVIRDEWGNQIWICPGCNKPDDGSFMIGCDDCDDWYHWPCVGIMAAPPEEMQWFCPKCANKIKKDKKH
The experiment is described as follows: ITC of GST-tagged Taf3-PHD P881F. An excerpt: (§1) The coding sequences of Mus musculus Taf3-PHD domain (residues 857–924) and Homosapiens PHF2 (1–66), PHF8 (37–102), and BPTF(2) (2865–2921) were cloned into the pGEX2T-derived vector, pRP265NB, for bacterial expression of GST-tagged proteins. Note that the PHD fingers of M. musculus Taf3 and H. sapiens TAF3 differ in a single amino acid. A901 in mouse corresponds to T899 in human. Here, amino acid numbering corresponds to mouse Taf3 isoform 1 with UniProt ID: Q5HZG4, accessible at https://www.uniprot.org/uniprotkb/Q5HZG4/entry. Single or double mutations were introduced by mutagenesis polymerase chain reaction and validated by Sanger sequencing. A single colony of freshly transformed BL21(DE3) Escherichia coli bacteria with the corresponding construct was grown in Luria broth (LB) medium supplemented with 50 μg/ml ampicillin until an OD600 of 0.7. […]
(§2) ITC experiments were performed at 20°C with a MicroCal VP-ITC microcalorimeter (Malvern) by sequential injection of 10 μl at 300 μM histone peptide during 20 s into the sample cell containing 30 or 15 μM of GST-Taf3 (wild type or mutant) or GST-BPTF, GST-PHF2, and GST-PHF8 PHDs in ITC buffer (100 mM NaCl, 20 mM Tris–HCl, pH 7.5). […] ITC data were subsequently analysed and fitted with the one-site binding model in the MicroCal ITC Origin Analysis software 7.0 (Table 1, Figs 3B and 5A, Supplementary Table S3, and Supplementary Fig. S10). […]

The target of experiment [2] is T2, TAF3 W894F (GST-tagged PHD) (Mus musculus, UniProt Q5HZG4, W894F).
T2 construct: Mus musculus Taf3-PHD domain (residues 857–924); made in house; host or cells: E. coli BL21(DE3)
T2 sequence (Q5HZG4 857-924 W894F): T1 sequence (Q5HZG4 857-924 P881F) with F25P, W38F
The experiment is described as follows: ITC of GST-tagged Taf3-PHD W894F.
Text: as §1, §2

Experiment [3] deals with T3, PHF8 PHD (37–102, GST-tagged) (Homo sapiens, UniProt Q9UPP1).
T3 construct: PHF8 (37–102); made in house; host or cells: E. coli BL21(DE3)
T3 sequence (Q9UPP1 37-102): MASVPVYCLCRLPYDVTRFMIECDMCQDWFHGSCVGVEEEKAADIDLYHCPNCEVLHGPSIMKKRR
Description: ITC of GST-tagged PHF8 PHD.
Text: as §1, §2

The target of experiment [4] is T4, TAF3 WT (GST-tagged Taf3-PHD, residues 857–924) (Mus musculus, UniProt Q5HZG4).
T4 construct: Mus musculus Taf3-PHD domain (residues 857–924); made in house; host or cells: E. coli BL21(DE3)
T4 sequence (Q5HZG4 857-924): T1 sequence (Q5HZG4 857-924 P881F) with F25P
The experiment is described as follows: ITC of GST-tagged Taf3-PHD wild type.
Text: as §1, §2

The target of experiment [5] is T5, TAF3 P881E W894F (GST-tagged PHD) (Mus musculus, UniProt Q5HZG4, P881E/W894F).
T5 construct: Mus musculus Taf3-PHD domain (residues 857–924); made in house; host or cells: E. coli BL21(DE3)
T5 sequence (Q5HZG4 857-924 P881E/W894F): T1 sequence (Q5HZG4 857-924 P881F) with F25E, W38F
Description: ITC of GST-tagged Taf3-PHD P881E W894F.
Text: as §1, §2

Experiment [6] concerns the target T6, TAF3 W894L (GST-tagged PHD) (Mus musculus, UniProt Q5HZG4, W894L).
T6 construct: Mus musculus Taf3-PHD domain (residues 857–924); made in house; host or cells: E. coli BL21(DE3)
T6 sequence (Q5HZG4 857-924 W894L): T1 sequence (Q5HZG4 857-924 P881F) with F25P, W38L
Description: ITC of GST-tagged Taf3-PHD W894L.
Text: as §1, §2

Experiment [7] concerns the target T7, TAF3 S880A (GST-tagged PHD) (Mus musculus, UniProt Q5HZG4, S880A).
T7 construct: Mus musculus Taf3-PHD domain (residues 857–924); made in house; host or cells: E. coli BL21(DE3)
T7 sequence (Q5HZG4 857-924 S880A): T1 sequence (Q5HZG4 857-924 P881F) with S24A, F25P
Description: ITC of GST-tagged Taf3-PHD S880A.
Text: as §1, §2

Experiment [8] deals with T8, TAF3 P881E (GST-tagged PHD) (Mus musculus, UniProt Q5HZG4, P881E).
T8 construct: Mus musculus Taf3-PHD domain (residues 857–924); made in house; host or cells: E. coli BL21(DE3)
T8 sequence (Q5HZG4 857-924 P881E): T1 sequence (Q5HZG4 857-924 P881F) with F25E
Description: ITC of GST-tagged Taf3-PHD P881E.
Text: as §1, §2

Setting [9] is: ITC, 20°C, 100 mM NaCl, 20 mM Tris–HCl, pH 7.5, one-site model, ± = standard error of fit, read-out: K D.

Numbering of substitutions follows the chain as printed. Read-outs that look alike come from different tables or passages of the source.

With `C[C@H](N)C(=O)N[C@@H](CCCNC(=N)N)C(=O)N[C@H](C(=O)N[C@@H](CCCC[N+](C)(C)C)C(=O)N[C@@H](CCC(=O)NCCc1c[nH]c2ccc(O)cc12)C(=O)N[C@H](C(=O)N[C@@H](C)C(=O)N[C@@H](CCCNC(=N)N)C(=O)N[C@@H](CCCCN)C(=O)N[C@@H](CO)C(=O)N[C@H](C(=O)NCC(N)=O)[C@@H](C)O)[C@@H](C)O)[C@@H](C)O` [H3K4me3Q5ser], the Kd was 124 ± 7 nM in experiment [1]; 102 ± 1 nM in experiment [2]; 275 ± 19 nM in experiment [3]; 98 ± 8 nM in experiment [4]; 111 ± 14 nM in experiment [5]; 324 ± 18 nM in experiment [6]. Also, the Kd in experiment [7] worked out at 65 ± 5 nM; in experiment [8], 136 ± 4 nM.
Turning to `C[C@H](N)C(=O)N[C@@H](CCCNC(=N)N)C(=O)N[C@H](C(=O)N[C@@H](CCCC[N+](C)(C)C)C(=O)N[C@@H](CCC(N)=O)C(=O)N[C@H](C(=O)N[C@@H](C)C(=O)N[C@@H](CCCNC(=N)N)C(=O)N[C@@H](CCCCN)C(=O)N[C@@H](CO)C(=O)N[C@H](C(=O)NCC(N)=O)[C@@H](C)O)[C@@H](C)O)[C@@H](C)O` [H3K4me3], the Kd in experiment [1] (setting [9]) was determined as 130 ± 4 nM; in experiment [2] (setting [9]), 126 ± 12 nM; in experiment [3] (setting [9]), 418 ± 20 nM; in experiment [4] (ITC, 20°C, 100 mM NaCl, 20 mM Tris–HCl, pH 7.5, 300 μM peptide into 30 or 15 μM GST-PHD, one-site model, ± = standard error of fit, representative experiment, read-out: K D), 260 ± 16 nM; in experiment [5] (setting [9]) it was 123 ± 10 nM; in experiment [6] (setting [9]) it was 595 ± 35 nM. The Kd in experiment [7] (setting [9]) stood at 207 ± 34 nM; in experiment [8] (setting [9]) it was 148 ± 4 nM.
